Laboratory results as given in patent US20110003847A1, “Prasugrel Salts with Improved Properties” (HELM AG, priority 2008, published 2011).
Counter-ions that a name gives are not always drawn.

Columns and labels:
[1] = Corrosiveness of the salts; assay type: physicochemical
[2] = Hygroscopicity of the salts; assay type: physicochemical
[3] = Storage of tablets at room temperature in an open container (discoloration); assay type: physicochemical; details: tablets stored 9 days at room temperature (15-25° C.) in an open container
Experimental: Tablets were stored for 9 days at room temperature (15-25° C.) in an open container.

mammals = test: Toxicity of prasugrel salts with regard to mammals; assay type: in vivo; details: compared with other salts
Excerpt: Although the exact reason for this low toxicity hat not yet been found, it is assumed that this effect is due to a different solubility of the salts. The toxicity and safety margin of prasugrel can be controlled by varying the solubility of its salts.

| Compound | corrosiveness [1] | hygroscopicity [2] | discoloration of tablets on storage [3] | toxicity (mammals) |
| --- | --- | --- | --- | --- |
| CC(=O)Oc1cc2c(s1)CCN(C(C(=O)C1CC1)c1ccccc1F)C2.O=S(=O)(O)c1cccc2c(S(=O)(=O)O)cccc12 (stereo not shown) [prasugrel napadisylate, Prasugrel-1,5-Dinapsylate] | not corrosive | not hygroscopic | – | – |
| CC(=O)Oc1cc2c(s1)CCN(C(C(=O)C1CC1)c1ccccc1F)C2.O=S(=O)(O)c1ccc2ccccc2c1 (stereo not shown) [prasugrel napsylate, Prasugrel-2-Napsylate] | not corrosive | not hygroscopic | – | – |
| CC(=O)Oc1cc2c(s1)CCN(C(C(=O)C1CC1)c1ccccc1F)C2 (stereo not shown) [prasugrel-HCl, Prasugrel-Hydrochloride] | – | – | clear discoloration | – |
| Prasugrel-Besylate [prasugrel besylate] | – | not hygroscopic | – | very low toxicity |
